Test results taken from patent EP0189002B1, “Treatment of gastrointestinal disorders using 5-HT3 antagonists” (SANDOZ AG, priority 1984, dated 1986).

Columns and labels:
[1] = Test C: inhibition of 5-hydroxytryptophan (5-HTP) induced increase in gastrointestinal motility (charcoal transit); assay type: in vivo, NMRI mice; conditions: 30 minutes before 5-HTP 3 mg/kg, mice
Description: In a further test the inhibition of the increase in gastrointestinal motility induced by 5-hydroxytryptophan (5-HTP) by the compounds of the invention was observed.
Male NMRI mice (18-32 g in weight) are deprived of food 20 hours before the test. Water is not limited. The animals are separated by a barrier from their straw and access to feces. At the beginning of the test the animals are separated in individual single cages and water is removed.
All animals were treated with the test compound or saline. l.p. administration was used. Injection volume was 0.1 ml/10 g. 30 minutes after pre-treatment 5-HTP or saline was administered. Injection volume 0.1 ml /10 g. Dose 3 mg/kg. At the same time charcoal was administered perorally (10% suspension in water; 0.1 ml/10g). 45 minutes after the start of the experiment the animals were killed. The intestines from the stomach to the rectum were examined. For each animal the transit distance of the front of the charcoal meal along the intestine was measured. The distance was ascertained as a percentage of the whole intestinal length. Groups of at least 3 animals were used.

[2] = target: dopamine binding sites; conditions: tritiated haloperidol; cited from earlier work
[3] = test system: high affinity 5-HT receptor; assay: 5-HT induced contraction of isolated longitudinal muscle of guinea pig ileum, high affinity receptor; conditions: guinea pig ileum longitudinal muscle strip, 5-HT as agonist
Excerpt: (§1) The isolated longitudinal muscle of the guinea pig ileum with its adhering myenteric plexus is a well established model which permits investigation of the mechanism of action of various neurtransmitters.
(§2) Male guinea pigs (200-400 g) were killed by a blow on the head and exsanguinated. A length of small intestine was removed about 2 cm from the ileo-caecal valve. The mesentery was carefully removed and the ileum was stretched over a glass rod. By stroking tangentially away from the mesenteric attachment with a wad of cotton wool, the longitudinal muscle layer was separated and stripped from the unterlying circular muscle. Longitudinal muscle strips, 3-4 cm length, were mounted in a 10 ml organ bath containing Tyrode solution at 37 ° C and bubbled with 5% carbon dioxide in oxygen. […] Contractions were recorded with an isotonic pendulum lever. […]
(§3) Non-cumulative concentration-response curves for 5-HT were established by adding increasing concentrations of the agonist to the organ bath at intervals of at least 15 min. […] The contractions expressed as percentage of the maximal response to 5-HT obtained from several preparations were plotted as mean values in order to obtain log-concentration-response curves. Inhibition constants were expressed in the form of pA2 values which were graphically determined according to conventional methods (Arunlakshana and Schild, 1959. Mc Kay 1978). […]

[4] = target: T1, low affinity 5-HT receptors (Cavia porcellus, UniProt O70212); assay: 5-HT induced contraction of isolated longitudinal muscle of guinea pig ileum, low affinity receptor; conditions: guinea pig ileum longitudinal muscle strip, 5-HT as agonist
T1 construct: Longitudinal muscle strips, 3-4 cm length, were mounted in a 10 ml organ bath; from tissue; host or cells: guinea pig ileum longitudinal muscle with adhering myenteric plexus
T1 sequence (O70212 20-490): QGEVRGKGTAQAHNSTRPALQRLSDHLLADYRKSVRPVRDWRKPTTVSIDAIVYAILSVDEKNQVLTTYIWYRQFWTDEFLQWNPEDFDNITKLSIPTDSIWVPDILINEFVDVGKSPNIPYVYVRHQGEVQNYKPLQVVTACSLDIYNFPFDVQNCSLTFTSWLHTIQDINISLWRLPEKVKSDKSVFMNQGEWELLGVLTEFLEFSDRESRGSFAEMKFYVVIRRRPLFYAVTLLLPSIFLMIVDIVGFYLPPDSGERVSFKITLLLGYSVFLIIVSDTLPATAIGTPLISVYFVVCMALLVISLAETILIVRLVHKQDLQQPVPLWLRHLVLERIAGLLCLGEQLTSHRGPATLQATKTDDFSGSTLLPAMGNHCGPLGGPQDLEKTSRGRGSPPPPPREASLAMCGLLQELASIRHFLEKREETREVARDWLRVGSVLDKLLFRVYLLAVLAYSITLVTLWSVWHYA
Excerpt: as §1, §2, §3

[5] = test system: muscle strips from different parts of the guinea pig stomach; assay: Test A: field stimulation-induced contractions in guinea pig stomach muscle strips; conditions: facilitation of field stimulation-induced contractions
Excerpt: The compounds of the invention facilitate field stimulation-induced contractions in muscle strips from different parts of the guinea pig stomach and are therefore indicated to increase decreased peristaltic movements in the stomach and to enhance gastric emptying in vivo. The test is effected as follows:-Male Dunkin-Hartley guinea pigs, 340-450 g, which had been starved overnight, were killed by cervical transsection and the stomach removed and placed in Krebs-Henseleit solution (NaCI 118.0, KCI 4.75, KH2P04 1.2, MgS04 1.2, CaC12 2.5, glucose 10 mM). Segments were taken from the body (approximately 20 mm long, 3-4 mm wide) with dissection in a plane suitable to investigate tension changes in the circular muscle layer. Tissues were placed in 30 ml organ baths containing oxygenated (95% 02, 5% C02) Krebs-Henseleit solution at 37 C. One gram tension was applied to the tissues which were allowed to equilibrate for 45-60 min. before electrical stimulation. […] Responses were measured as changes in gram tension, but to allow easier comparison between treatments, data were converted to show changes as percentage values. The significance of differences between control responses and those obtained in the presence of interacting drugs was assessed using the Mann-Whitney U test.

[6] = Test B: gastric emptying in conscious guinea pigs (X-ray passage of spheroids); assay type: in vivo; conditions: enhancing gastric emptying
Description: The compounds of the invention also induce gastric emptying as indicated in standard in vivo tests, e.g. in conscious guinea pigs having stomachs made atonic (i.e. having decreased peristaltic movements) by fasting and wherein the passage of glass spheroids was observed by X-ray techniques. The experiment is effected as follows: • Food was withdrawn for 14 hours before the measurement of gastric emptying. The experiment was conducted under low illumination which minimal noise and disturbance, and was carried out only by those experimentors who had daily contact with the guinea pigs and who carried out the initial training to accustom the guinea pigs to handling. Therefore, animals were subject to minimal stress. […] Gastric emptying was measured as the number of spheroids leaving the stomach.
Six guinea pigs were used at each dose level of drug and responses compared to those of guinea pigs receiving the appropriate vehicle. The significance of differences between drug and control responses was assessed using the Mann Whitney U test.

[7] = assay type: in vivo, NMRI mice; conditions: cholera toxin challenged mice

Row | SMILES | ED50 i.p. [1] | pD'2 high affinity receptor [3] | pA2 low affinity receptor [4] | other results
1 | CN1[C@@H]2CCC[C@H]1C[C@@H](OC(=O)c1cn(C)c3ccc(F)cc13)C2 [Compound G, 5-fluoro-1-methyl-indol-3-yl carboxylic acid endo-9-methyl-9-aza-bicyclo[3,3,1]non-3-yl ester] | 0.002 mg/kg |  |  | 
2 | CCN(CC)CCNC(=O)c1cc(Cl)c(N)cc1OC [metoclopramide] |  |  |  | IC50 [2]: ~170 nM
3 | CN1[C@@H]2CCC[C@H]1C[C@@H](OC(=O)c1csc3ccccc13)C2 [Compound F, Benzo[b]thiophen-3-yl carboxylic acid endo-9-methyl-asa-bicyclo-[3,3,1]non-3-yl ester] |  | pD'2 = 5.9 | pA2 = 9.4 | ED50 ([1]; Mus musculus, i.p.): 0.025 mg/kg
4 | CN1[C@@H]2CC[C@H]1C[C@@H](OC(=O)c1c[nH]c3ccccc13)C2 [Compound E, Indol-3-yl carboxylic acid endo-8-methyl-8-aza-bicyclo[3,2,1]-oct-3-yl ester] | 0.07 mg/kg | pD'2 = 5.7 | pA2 = 7.9 | times more active than metoclopramide [5]: 100 times; times more active than metoclopramide [6]: about 50 times; effect of an increase in the dose on stomach contents [7]: did not lead to a reduction in the stomach contents
